# Assay results as given in ChEMBL document CHEMBL3045910, “Novel molluscicide against Pomacea canaliculata based on quinoa (Chenopodium quinoa) saponins” (Crop Prot, 2008).
# The source made the active and inactive calls. The calls are words filed in the database; no cut-off is given here.
# Assays:
# [1] = Toxicity against Carassius auratus under laboratory conditions assessed as mortality at 40 ppm measured after 48 hr; format: organism-based; details: in vivo
# [2] = Toxicity against Carassius auratus under laboratory conditions assessed as mortality at 10 ppm measured after 24 hr; format: organism-based; details: in vivo
# [3] = Toxicity against Carassius auratus under laboratory conditions assessed as mortality at 33 ppm measured after 48 hr; format: organism-based; details: in vivo
# [4] = Toxicity against Carassius auratus under laboratory conditions assessed as mortality at 40 ppm measured after 24 hr; format: organism-based; details: in vivo
# [5] = Toxicity against Carassius auratus under laboratory conditions assessed as mortality at 10 ppm measured after 48 hr; format: organism-based; details: in vivo
# [6] = Toxicity against Carassius auratus under laboratory conditions assessed as mortality at 40 ppm measured after 96 hr; format: organism-based; details: in vivo
# Pomacea canaliculata [7] = experiment: Molluscicidal activity against Pomacea canaliculata under laboratory conditions assessed as mortality at 54 ppm after 24 hr; format: functional
# [8] = Toxicity against Carassius auratus under laboratory conditions assessed as mortality at 17 ppm measured after 24 hr; format: organism-based; details: in vivo
# Pomacea canaliculata [9] = experiment: Molluscicidal activity against Pomacea canaliculata under laboratory conditions assessed as mortality at 17 ppm after 24 hr; format: functional
# [10] = Toxicity against Oreochromis sp. under laboratory conditions assessed as mortality at 40 ppm measured after 96 hr; format: organism-based; details: in vivo
# [11] = Toxicity against Oreochromis sp. under laboratory conditions assessed as mortality at 40 ppm measured after 24 hr; format: organism-based; details: in vivo
# [12] = Toxicity against Carassius auratus under laboratory conditions assessed as mortality at 5 ppm measured after 96 hr; format: organism-based; details: in vivo
# [13] = Toxicity against Carassius auratus under laboratory conditions assessed as mortality at 23 ppm measured after 48 hr; format: organism-based; details: in vivo
# [14] = Toxicity against Carassius auratus under laboratory conditions assessed as mortality at 17 ppm measured after 48 hr; format: organism-based; details: in vivo
# [15] = Toxicity against Oreochromis sp. under laboratory conditions assessed as mortality at 5 ppm measured after 96 hr; format: organism-based; details: in vivo
# [16] = Toxicity against Carassius auratus under laboratory conditions assessed as mortality at 10 ppm measured after 96 hr; format: organism-based; details: in vivo
# [17] = Toxicity against Oreochromis sp. under laboratory conditions assessed as mortality at 33 ppm measured after 96 hr; format: organism-based; details: in vivo
# [18] = Toxicity against Oreochromis sp. under laboratory conditions assessed as mortality at 23 ppm measured after 24 hr; format: organism-based; details: in vivo
# Pomacea canaliculata [19] = experiment: Molluscicidal activity against Pomacea canaliculata under laboratory conditions assessed as mortality at 10 ppm after 24 hr; format: functional
# [20] = Toxicity against Oreochromis sp. under laboratory conditions assessed as mortality at 5 ppm measured after 24 hr; format: organism-based; details: in vivo
# [21] = Toxicity against Oreochromis sp. under laboratory conditions assessed as mortality at 33 ppm measured after 24 hr; format: organism-based; details: in vivo
# [22] = Toxicity against Carassius auratus under laboratory conditions assessed as mortality at 5 ppm measured after 24 hr; format: organism-based; details: in vivo
# [23] = Toxicity against Carassius auratus under laboratory conditions assessed as mortality at 23 ppm measured after 96 hr; format: organism-based; details: in vivo
# [24] = Toxicity against Carassius auratus under laboratory conditions assessed as mortality at 33 ppm measured after 96 hr; format: organism-based; details: in vivo
# Pomacea canaliculata [25] = experiment: Molluscicidal activity against Pomacea canaliculata infested rice field assessed as mortality at 19 to 27 ppm after 24 hr; format: functional, organism-based
# [26] = Toxicity against Oreochromis sp. under laboratory conditions assessed as mortality at 17 ppm measured after 96 hr; format: organism-based; details: in vivo
# Pomacea canaliculata [27] = experiment: Molluscicidal activity against Pomacea canaliculata under laboratory conditions assessed as mortality at 5 ppm after 24 hr; format: functional
# [28] = Toxicity against Carassius auratus under laboratory conditions assessed as mortality at 54 ppm measured after 24 hr; format: organism-based; details: in vivo
# [29] = Toxicity against Oreochromis sp. under laboratory conditions assessed as mortality at 54 ppm measured after 96 hr; format: organism-based; details: in vivo
# [30] = Toxicity against Carassius auratus under laboratory conditions assessed as mortality at 54 ppm measured after 96 hr; format: organism-based; details: in vivo
# [31] = Toxicity against Oreochromis sp. under laboratory conditions assessed as mortality at 10 ppm measured after 96 hr; format: organism-based; details: in vivo
# [32] = Toxicity against Carassius auratus under laboratory conditions assessed as mortality at 54 ppm measured after 48 hr; format: organism-based; details: in vivo
# [33] = Toxicity against Carassius auratus under laboratory conditions assessed as mortality at 5 ppm measured after 48 hr; format: organism-based; details: in vivo
# [34] = Toxicity against Oreochromis sp. under laboratory conditions assessed as mortality at 54 ppm measured after 24 hr; format: organism-based; details: in vivo
# [35] = Toxicity against Carassius auratus under laboratory conditions assessed as mortality at 17 ppm measured after 96 hr; format: organism-based; details: in vivo
# Pomacea canaliculata [36] = experiment: Molluscicidal activity against Pomacea canaliculata under laboratory conditions assessed as mortality at 40 ppm after 24 hr; format: functional
# [37] = Toxicity against Oreochromis sp. under laboratory conditions assessed as mortality at 23 ppm measured after 96 hr; format: organism-based; details: in vivo
# [38] = Toxicity against Oreochromis sp. under laboratory conditions assessed as mortality at 10 ppm measured after 24 hr; format: organism-based; details: in vivo
# [39] = Toxicity against Carassius auratus under laboratory conditions assessed as mortality at 33 ppm measured after 24 hr; format: organism-based; details: in vivo
# [40] = Toxicity against Oreochromis sp. under laboratory conditions assessed as mortality at 17 ppm measured after 24 hr; format: organism-based; details: in vivo
# Pomacea canaliculata [41] = experiment: Molluscicidal activity against Pomacea canaliculata under laboratory conditions assessed as mortality at 33 ppm after 24 hr; format: functional
# [42] = Toxicity against Carassius auratus under laboratory conditions assessed as mortality at 23 ppm measured after 24 hr; format: organism-based; details: in vivo
# Pomacea canaliculata [43] = experiment: Molluscicidal activity against Pomacea canaliculata under laboratory conditions assessed as mortality at 23 ppm after 24 hr; format: functional
structure (smiles),measurement,setting,value
CC1(C)CC[C@]2(C(=O)O)CC[C@]3(C)C(=CC[C@@H]4[C@@]5(C)CC[C@H](O)[C@@](C)(CO)[C@@H]5CC[C@]43C)[C@@H]2C1 [HEDERAGENIN],"mortality at 48 h, 40 ppm",[1],0%
same,"mortality at 24 h, 10 ppm",[2],0%
same,"mortality at 48 h, 33 ppm",[3],0%
same,"mortality at 24 h, 40 ppm",[4],0%
same,"mortality at 48 h, 10 ppm",[5],0%
same,"mortality at 96 h, 40 ppm",[6],0%
same,mortality at 54 ppm,Pomacea canaliculata [7],100%
same,"mortality at 24 h, 17 ppm",[8],0%
same,mortality at 17 ppm,Pomacea canaliculata [9],75%
same,"mortality at 96 h, 40 ppm",[10],0%
same,"mortality at 24 h, 40 ppm",[11],0%
same,"mortality at 96 h, 5 ppm",[12],0%
same,"mortality at 48 h, 23 ppm",[13],0%
same,"mortality at 48 h, 17 ppm",[14],0%
same,"mortality at 96 h, 5 ppm",[15],0%
same,"mortality at 96 h, 10 ppm",[16],0%
same,"mortality at 96 h, 33 ppm",[17],0%
same,"mortality at 24 h, 23 ppm",[18],0%
same,mortality at 10 ppm,Pomacea canaliculata [19],50%
same,"mortality at 24 h, 5 ppm",[20],0%
same,"mortality at 24 h, 33 ppm",[21],0%
same,"mortality at 24 h, 5 ppm",[22],0%
same,"mortality at 96 h, 23 ppm",[23],0%
same,"mortality at 96 h, 33 ppm",[24],0%
same,mortality,Pomacea canaliculata [25],Active
same,"mortality at 96 h, 17 ppm",[26],0%
same,mortality at 5 ppm,Pomacea canaliculata [27],0%
same,"mortality at 24 h, 54 ppm",[28],0%
same,"mortality at 96 h, 54 ppm",[29],0%
same,"mortality at 96 h, 54 ppm",[30],0%
same,"mortality at 96 h, 10 ppm",[31],0%
same,"mortality at 48 h, 54 ppm",[32],0%
same,"mortality at 48 h, 5 ppm",[33],0%
same,"mortality at 24 h, 54 ppm",[34],0%
same,"mortality at 96 h, 17 ppm",[35],0%
same,mortality at 40 ppm,Pomacea canaliculata [36],100%
same,"mortality at 96 h, 23 ppm",[37],0%
same,"mortality at 24 h, 10 ppm",[38],0%
same,"mortality at 24 h, 33 ppm",[39],0%
same,"mortality at 24 h, 17 ppm",[40],0%
same,mortality at 33 ppm,Pomacea canaliculata [41],100%
same,"mortality at 24 h, 23 ppm",[42],0%
same,mortality at 23 ppm,Pomacea canaliculata [43],75%
CC1(C)CC[C@]2(C(=O)O)CC[C@]3(C)C(=CC[C@@H]4[C@@]5(C)CC[C@H](O)C(C)(C)[C@@H]5CC[C@]43C)[C@@H]2C1 [OLEANOLIC_ACID],"mortality at 48 h, 40 ppm",[1],0%
same,"mortality at 24 h, 10 ppm",[2],0%
same,"mortality at 48 h, 33 ppm",[3],0%
same,"mortality at 24 h, 40 ppm",[4],0%
same,"mortality at 48 h, 10 ppm",[5],0%
same,"mortality at 96 h, 40 ppm",[6],0%
same,mortality at 54 ppm,Pomacea canaliculata [7],100%
same,"mortality at 24 h, 17 ppm",[8],0%
same,mortality at 17 ppm,Pomacea canaliculata [9],75%
same,"mortality at 96 h, 40 ppm",[10],0%
same,"mortality at 24 h, 40 ppm",[11],0%
same,"mortality at 96 h, 5 ppm",[12],0%
same,"mortality at 48 h, 23 ppm",[13],0%
same,"mortality at 48 h, 17 ppm",[14],0%
same,"mortality at 96 h, 5 ppm",[15],0%
same,"mortality at 96 h, 10 ppm",[16],0%
same,"mortality at 96 h, 33 ppm",[17],0%
same,"mortality at 24 h, 23 ppm",[18],0%
same,mortality at 10 ppm,Pomacea canaliculata [19],50%
same,"mortality at 24 h, 5 ppm",[20],0%
same,"mortality at 24 h, 33 ppm",[21],0%
same,"mortality at 24 h, 5 ppm",[22],0%
same,"mortality at 96 h, 23 ppm",[23],0%
same,"mortality at 96 h, 33 ppm",[24],0%
same,mortality,Pomacea canaliculata [25],Active
same,"mortality at 96 h, 17 ppm",[26],0%
same,mortality at 5 ppm,Pomacea canaliculata [27],0%
same,"mortality at 24 h, 54 ppm",[28],0%
same,"mortality at 96 h, 54 ppm",[29],0%
same,"mortality at 96 h, 54 ppm",[30],0%
same,"mortality at 96 h, 10 ppm",[31],0%
same,"mortality at 48 h, 54 ppm",[32],0%
same,"mortality at 48 h, 5 ppm",[33],0%
same,"mortality at 24 h, 54 ppm",[34],0%
same,"mortality at 96 h, 17 ppm",[35],0%
same,mortality at 40 ppm,Pomacea canaliculata [36],100%
same,"mortality at 96 h, 23 ppm",[37],0%
same,"mortality at 24 h, 10 ppm",[38],0%
same,"mortality at 24 h, 33 ppm",[39],0%
same,"mortality at 24 h, 17 ppm",[40],0%
same,mortality at 33 ppm,Pomacea canaliculata [41],100%
same,"mortality at 24 h, 23 ppm",[42],0%
same,mortality at 23 ppm,Pomacea canaliculata [43],75%
